Among the data in patent publication US7265148B2, “Substituted pyrrole-indoles” (Wyeth, priority 2003, dated 2007) are inhibition and IC50 values, retold here.

The target in assay [1] is T1, recombinant human plasminogen activator inhibitor-1 (PAI-1) (Homo sapiens, UniProt P05121).
T1 construct: purchased Molecular Innovations, Royal Oak, Mich
As to the kind of experiment: Primary screen for the PAI-1 inhibition (chromogenic tPA activity). The assay is classed as biochemical. The note with it: pH 6.6; for inhibition at 10 µM: 10 μM test compound; for inhibition at 25 µM: 25 μM test compound. Here is the method: Test compounds are dissolved in DMSO at a final concentration of 10 mM, then diluted 100× in physiologic buffer. The inhibitory assay is initiated by the addition of the test compound (1-100 μM final concentration, maximun DMSO concentration of 0.2%) in a pH 6.6 buffer containing 140 nM recombinant human plasminogen activator inhibitor-1 (PAI-1; Molecular Innovations, Royal Oak, Mich.). Following a 1 hour incubation at room temperature, 70 nM of recombinant human tissue plasminogen activator (tPA) is added, and the combination of the test compound, PAI-1 and tPA is incubated for an additional 30 minutes. Following the second incubation, Spectrozyme-tPA (American Diagnostica, Greenwich, Conn.), a chromogenic substrate for tPA, is added and absorbance read at 405 nm at 0 and 60 minutes. Relative PAI-1 inhibition is equal to the residual tPA activity in the presence of the test compound and PAI-1. Control treatments include the complete inhibition of tPA by PAI-1 at the molar ratio employed (2:1), and the absence of any effect of the test compound on tPA alone.

In a further assay the target is human PAI-1 (Homo sapiens, UniProt P05121). As to the kind of experiment: Assay for determining IC50 of inhibition of PAI-1 (tPA-coated plate, antibody detection). The assay is classed as binding. The note with it: active PAI-1 bound to tPA-coated plate; pH 7.5. Here is the method: This assay is based upon the non-SDS dissociable interaction between tPA and active PAI-1. Assay plates are initially coated with human tPA (10 μg/ml). Test compounds of the present invention are dissolved in DMSO at 10 mM, then diluted with physiologic buffer (pH 7.5) to a final concentration of 1-50 μM. Test compounds are incubated with human PAI-1 (50 ng/ml) for 15 minutes at room temperature. The tPA-coated plate is washed with a solution of 0.05% Tween 20 and 0.1% BSA, then the plate is blocked with a solution of 3% BSA. An aliquot of the substituted pyrrole-indole/PAI-1 solution is then added to the tPA-coated plate, incubated at room temperature for 1 hour, and washed. Active PAL-1 bound to the plate is assessed by adding an aliquot of a 1:1000 dilution of the 33B8 monoclonal antibody against human PAI-1, and incubating the plate at room temperature for 1 hour (Molecular Innovations, Royal Oak, Mich.). […] The plate is incubated 45 minutes at room temperature, and color development is determined at OD405 nm. The quantitation of active PAI-1 bound to tPA at varying concentrations of the test compound is used to determine the IC50. Results are analyzed using a logarithmic best-fit equation. The assay sensitivity is 5 ng/ml of human PAI-1 as determined from a standard curve ranging from 0-100 ng/ml.
Sequence of human PAI-1 (P05121 24-402): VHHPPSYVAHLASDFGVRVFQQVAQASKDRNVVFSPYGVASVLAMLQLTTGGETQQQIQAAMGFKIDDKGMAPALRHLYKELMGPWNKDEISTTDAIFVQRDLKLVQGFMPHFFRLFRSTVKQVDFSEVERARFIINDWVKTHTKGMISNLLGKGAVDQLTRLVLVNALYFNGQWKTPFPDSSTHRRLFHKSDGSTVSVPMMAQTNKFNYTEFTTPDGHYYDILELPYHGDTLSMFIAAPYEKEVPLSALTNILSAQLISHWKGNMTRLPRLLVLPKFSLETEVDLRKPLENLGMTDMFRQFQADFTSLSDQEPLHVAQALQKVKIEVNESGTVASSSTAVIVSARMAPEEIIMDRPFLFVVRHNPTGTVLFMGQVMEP

SMILES strings stand for the structures.

T1 sequence (P05121 24-402): as above

As for `O=C(O)c1c(-c2ccccc2)c2cc(-n3cccc3)ccc2n1Cc1ccccc1` [Example 1, 1-benzyl-3-phenyl-5-(1H-pyrrol-1-yl)-1H-indole-2-carboxylic acid], in assay [1], the inhibition at 10 µM was found to be 12% and the inhibition at 25 µM worked out at 69%.

For `Cn1c(C(=O)N[C@@H](Cc2ccccc2)C(=O)O)c(-c2ccccc2)c2cc(-n3cccc3)ccc21` [Example 2, N-{[1-methyl-3-phenyl-5-(1H-pyrrol-1-yl)-1H-indol-2-yl]carbonyl}-L-phenylalanine], in assay [1], the inhibition at 10 µM amounted to 4% and the inhibition at 25 µM was determined as 61%.

With `O=C(N[C@@H](Cc1ccccc1)C(=O)O)c1c(-c2ccccc2)c2cc(-n3cccc3)ccc2n1Cc1ccccc1` [Example 3, N-{[1-benzyl-3-phenyl-5-(1H-pyrrol-1-yl)-1H-indol-2-yl]carbonyl}-L-phenylalanine], in assay [1], the inhibition at 10 µM is 15% and the inhibition at 25 µM is 52%.

For `CC(C)C[C@H](NC(=O)c1c(-c2ccccc2)c2cc(-n3cccc3)ccc2n1Cc1ccccc1)C(=O)O` [Example 4, N-{[1-benzyl-3-phenyl-5-(1H-pyrrol-1-yl)-1H-indol-2-yl]carbonyl}-L-leucine], in assay [1], the inhibition at 10 µM is 18% and the inhibition at 25 µM stood at 90%.

On to `Cc1ccc(C)n1-c1ccc2c(c1)c(-c1ccccc1)c(C(=O)O)n2Cc1ccccc1` [Example 5, 1-benzyl-5-(2,5-dimethyl-1H-pyrrol-1-yl)-3-phenyl-1H-indole-2-carboxylic acid], for which, in assay [1], the inhibition at 10 µM turned out to be 23% and the inhibition at 25 µM stood at 83%.

With `Cc1ccc(C)n1-c1ccc2c(c1)c(-c1ccccc1)c(C(=O)N[C@@H](CC(C)C)C(=O)O)n2Cc1ccccc1` [Example 6, N-{[1-benzyl-5-(2,5-dimethyl-1H-pyrrol-1-yl)-3-phenyl-1H-indol-2-yl]carbonyl}-L-leucine], in assay [1], the inhibition at 10 µM came out at 76% and the inhibition at 25 µM worked out at 79%. The compound further registered an IC50 on human PAI-1 of 12.9 µM.

With `O=C(O)c1c(-c2ccccc2)c2cc(-n3cccc3)ccc2n1Cc1ccc(-c2ccccc2)cc1` [Example 7, 1-(1,1′-biphenyl-4-ylmethyl)-3-phenyl-5-(1H-pyrrol-1-yl)-1H-indole-2-carboxylic acid], in assay [1], the inhibition at 10 µM was determined as 56% and the inhibition at 25 µM came out at 90%.

With `O=C(O)c1c(-c2ccccc2)c2cc(-n3ccc4ccccc43)ccc2n1Cc1ccc(-c2ccccc2)cc1` [Example 8, 1′-(1,1′-biphenyl-4-ylmethyl)-3′-phenyl-1′H-1,5′-biindole-2′-carboxylic acid], in assay [1], the inhibition at 10 µM was determined as 60% and the inhibition at 25 µM stood at 79%.

For `O=C(O)c1[nH]c2ccc(-n3cccc3)cc2c1-c1ccccc1` [Example 9, 3-phenyl-5-(1H-pyrrol-1-yl)-1H-indole-2-carboxylic acid], in assay [1], the inhibition at 10 µM is 19% and the inhibition at 25 µM stood at 47%.

In the case of `CC(C)(C)c1ccc(-c2c(C(=O)O)n(Cc3ccccc3)c3ccc(-n4cccc4)cc23)cc1` [Example 10, 1-benzyl-3-(4-tert-butylphenyl)-5-(1H-pyrrol-1-yl)-1H-indole-2-carboxylic acid], in assay [1], the inhibition at 10 µM was 49% and the inhibition at 25 µM worked out at 90%.

`CC(C)(C)c1ccc(-c2c(C(=O)O)n(Cc3ccccc3)c3ccc(-n4ccc5ccccc54)cc23)cc1` [Example 11, 1′-benzyl-3′-(4-tert-butylphenyl)-1′H-1,5′-biindole-2′-carboxylic acid]: in assay [1], the inhibition at 10 µM came to 66% and the inhibition at 25 µM stood at 99%.

As for `O=C(N[C@@H](Cc1ccccc1)C(=O)O)c1[nH]c2ccc(-n3cccc3)cc2c1-c1ccccc1` [Example 12, N-{[3-phenyl-5-(1H-pyrrol-1-yl)-1H-indol-2-yl]carbonyl}-L-phenylalanine], in assay [1], the inhibition at 10 µM came out at 39% and the inhibition at 25 µM worked out at 51%.

By inhibition is commonly meant the percentage by which the read-out fell short of the control. In general, IC50 refers to the concentration that gives 50% inhibition. High values mean weaker potency in that assay, low ones greater potency in that assay.
